Data: patent US7737167B2, “2-amino benzimidazole derivatives and their use as modulators of small-conductance calcium-activated potassium channels” (Neurosearch A/S, priority 2004, dated 2010)
Where a name gives a salt, the structure may show the parent alone.

`Clc1ccc2c(c1)CCC2Nc1nc2ccccc2[nH]1` (stereo not shown) [Example 8, N-(Benzimidazol-2-yl)-5-chloro-1-indanylamine] and `Brc1ccc2c(c1)CCC2Nc1nc2ccccc2[nH]1` (stereo not shown) [Example 9, N-(Benzimidazol-2-yl)-5-bromo-1-indanylamine] fall in the same range of melting point: 242 to 243 °C for the first, 242 to 243 °C for the second.

First: Clc1ccc(C(CNc2nc3ccccc3[nH]2)c2ccc(Cl)cc2)cc1 [Example 3, N-(Benzimidazol-2-yl)-2,2-bis(4-chlorophenyl)ethylamine]
Second: Clc1ccc(C(Nc2nc3ccccc3[nH]2)c2ccc(Cl)cc2)cc1 [Example 13, N-(Benzimidazol-2-yl)-4,4′-dichlorobenzhydrylamine]
The melting point of the first is higher: 189 to 190 °C for the first, 176 to 180 °C for the second.

First: Clc1ccc(C(Nc2nc3ccccc3[nH]2)c2ccccc2)cc1 (stereo not shown) [Example 12, N-(Benzimidazol-2-yl)-4-chlorobenzhydrylamine]
Second: c1ccc(C(Nc2nc3ccccc3[nH]2)c2ccccc2)cc1 [Example 11, N-(Benzimidazol-2-yl)benzhydrylamine]
The melting point of the first is lower: 180 to 184 °C for the first, 255 to 258 °C for the second.

Compared with `Fc1ccc2c(c1)C(Nc1nc3ccccc3[nH]1)CCC2` (stereo not shown) [Example 26, N-(Benzimidazol-2-yl)-7-fluoro-1,2,3,4-tetrahydro-1-naphthylamine], `Fc1ccc2nc(NC3CCCc4ccccc43)[nH]c2c1` (stereo not shown) [Example 24, N-(5-Fluorobenzimidazol-2-yl)-1,2,3,4-tetrahydro-1-naphthylamine] is higher in melting point: 181 °C for the first, 220 to 221 °C for the second.

First: c1ccc(C(CNc2nc3ccccc3[nH]2)c2ccccc2)cc1 (as salt: HCl) [Example 1, N-(Benzimidazol-2-yl)-2,2-diphenylethylamine]
Second: c1ccc(C(CCNc2nc3ccccc3[nH]2)c2ccccc2)cc1 (as salt: HCl) [Example 4, N-(Benzimidazol-2-yl)-3,3-diphenylpropylamine]
The melting point of the first is higher: 153.5 to 154.5 °C for the first, 136.5 to 137.5 °C for the second.

First: Fc1ccc(C(Nc2nc3ccccc3[nH]2)c2ccc(F)cc2)cc1 [Example 14, N-(Benzimidazol-2-yl)-4,4′-difluorobenzhydrylamine]
Second: Fc1ccc(C(CNc2nc3ccccc3[nH]2)c2ccc(F)cc2)cc1 [Example 2, N-(Benzimidazol-2-yl)-2,2-bis(4-fluorophenyl)ethylamine]
The melting point of the first is higher: 241 to 243 °C for the first, 155 to 157 °C for the second.

First: Cc1cc(C)c2c(c1)C(Nc1nc3ccccc3[nH]1)CCC2 (stereo not shown) [Example 19, N-(Benzimidazol-2-yl)-5,7-dimethyl-1,2,3,4-tetrahydro-1-naphthylamine]
Second: Cc1cc2nc(N[C@@H]3CCCc4ccccc43)[nH]c2cc1C [Example 23, (R)-N-(5,6-Dimethylbenzimidazol-2-yl)-1,2,3,4-tetrahydro-1-naphthylamine]
The melting point of the first is higher: 250 to 252 °C for the first, 121 to 124 °C for the second.

Compared with `CC1CCC(Nc2nc3ccccc3[nH]2)c2ccccc21` (stereo not shown) (as salt: HCl) [Example 20, N-(Benzimidazol-2-yl)-4-methyl-1,2,3,4-tetrahydro-1-naphthylamine], `CC1CCc2ccccc2C1Nc1nc2ccccc2[nH]1` (stereo not shown) [Example 18, N-(Benzimidazol-2-yl)-2-methyl-1,2,3,4-tetrahydro-1-naphthylamine] is lower in melting point: 276 °C for the first, 256 to 257 °C for the second.

First: c1ccc2c(c1)CC(Nc1nc3ccccc3[nH]1)C2 [Example 6, N-(Benzimidazol-2-yl)-2-indanylamine]
Second: c1ccc2c(c1)CCCCC2Nc1nc2ccccc2[nH]1 (stereo not shown) [Example 15, N-(Benzimidazol-2-yl)-6,7,8,9-tetrahydro-5H-benzocyclohepten-5-ylamine]
The melting point of the first is higher: 246 to 249 °C for the first, 203 to 205 °C for the second.

For `Fc1ccc2c(c1)CCC2Nc1nc2ccccc2[nH]1` (stereo not shown) [Example 7, N-(Benzimidazol-2-yl)-5-fluoro-1-indanylamine], the melting point was 207 to 208 °C.
